Values quoted from earlier work, collected in patent publication US9072782B2, “Gadolinium complex, method for preparing same, and MRI contrast agent comprising same” (CATHLOIC UNIVERSITY INDUSTRY ACADEMIC COOPERATION FOUNDATION, priority 2009, dated 2015).

How the values were obtained:
[1] = prior DTPA-Gd
[2] = Hiroki Yoshikawa et al., Gazoshindan 1986

Structure (SMILES): O=C([O-])CN(CCN(CC(=O)[O-])CC(=O)O)CCN(CC(=O)[O-])CC(=O)O.[Gd+3] [DTPA-Gd]
- time taken to be washed out from tissue [1]: about 30 minutes
- half-life [2]: about 14 minutes
